Article PMC8049364, “Quantification of Macrophage-Driven Inflammation During Myocardial Infarction with ^18F-LW223, a Novel TSPO Radiotracer with Binding Independent of the rs6971 Human Polymorphism” (Journal of Nuclear Medicine, 2021)

Experiments:
[1] = Dosimetry from whole-body PET in mice (OLINDA/EXM, estimated for humans); format: in vivo
Protocol: Thirty-two PET scans were performed with ^18F-LW223 (17.8 ± 1.5 MBq, intravenous bolus, mean ± SEM). Naïve and MI rat scans were acquired immediately after intravenous bolus injection of ^18F-LW223. […] Dosimetry studies were conducted using mice and 240-min PET scans.
The following organs were identified as source organs: brain, heart, lung, gallbladder, liver, gut, adrenals, kidneys, and bladder. A whole-body VOI was drawn around the animal body and was used to quantify whole-body remainder activity as whole-body activity minus source-organ activity. At each time point, the measured activity of the source organs was expressed as the percentage injected dose. The residence time (τ), defined as the ratio of accumulated activity in the target organ (Ā) and injected activity (A0) (i.e., τ = Ā/A0 ([20])), was calculated as previously described ([21]). Calculated τ was normalized on the basis of the factors shown in Supplemental Table 3 ([22]–[26]) and entered into OLINDA/EXM software, version 1.0, to estimate organ doses and effective doses.
Organ Mouse Human Correction Factor
% Total body weight % Total body weight
Supplemental Table 3. Scaling factors for different organs in mice and humans based on their percentage contribution to total body weight. Data presented in this table was calculated based on previously published data.

[2] = Radiometabolite analysis of blood and tissue in naïve rats; format: in vivo, rat; conditions: for Parent fraction: population curve
Protocol: Arterial blood samples were collected at 2, 5, 10, 20, 30, 60, and 120 min after radiotracer injection (69.7 ± 9.1 MBq [mean ± SEM], n = 17 rats), and heart, lung, and brain tissue samples were collected at 60 and 120 min. Blood and tissues were processed as detailed in the supplemental materials.
Invasive Input Function Measurement
Polyethylene catheters (PE50) filled with heparinized saline (20 IU/mL) were inserted into the left femoral artery and vein with the help of a stereomicroscope and securely fastened with ligatures (6-0 silk thread). […]
Radiometabolite Blood and Tissue Processing and Analysis
All blood samples were 1 mL each and manually collected from different animals to generate a population curve, in order to respect total blood volume limits for terminal arterial blood collections in rats. Following blood and tissue collection, all samples were […]
kept on ice until analyzed. Radioactivity in whole blood and plasma, as well as homogenized tissue samples, was assessed using a well-type γ-counter using a 400– 1400 keV window (Perkin Elmer Wizzard2, USA). Plasma samples (400 μl) and tissue samples (500 μl) were processed by acetonitrile denaturation (1:1.4 v/v) and analyzed by HPLC (Ultimate2000, ThermoFisher, UK) on a Luna C18(2) 10×250 mm, 10 μm column (Phenomenex, UK) with acetonitrile/water 70/30 and flow rate of 4 mL/min to estimate the […]
parent fraction. […]

CC[C@@H](C)N(C)C(=O)c1nc2ccccc2c(-c2ccccc2)c1C[18F] [^18F-LW223]
Effective dose ([1]; Female (n = 5)): 0.02 mSv/MBq | Estimated absorbed dose, Adrenals ([1]; Female (n = 5)): 3.67 ×10^−2 mGy/MBq | Estimated absorbed dose, Brain ([1]; Female (n = 5)): 0.56 ×10^−2 mGy/MBq | Estimated absorbed dose, Breasts ([1]; Female (n = 5)): 0.86 ×10^−2 mGy/MBq | Estimated absorbed dose, Gallbladder wall ([1]; Female (n = 5)): 2.46 ×10^−2 mGy/MBq | Estimated absorbed dose, Heart wall ([1]; Female (n = 5)): 1.89 ×10^−2 mGy/MBq | Estimated absorbed dose, Kidneys ([1]; Female (n = 5)): 1.54 ×10^−2 mGy/MBq | Estimated absorbed dose, Liver ([1]; Female (n = 5)): 1.95 ×10^−2 mGy/MBq | Estimated absorbed dose, Lower large intestine wall ([1]; Female (n = 5)): 9.26 ×10^−2 mGy/MBq | Estimated absorbed dose, Lung ([1]; Female (n = 5)): 3.31 ×10^−2 mGy/MBq | Estimated absorbed dose, Muscle ([1]; Female (n = 5)): 0.98 ×10^−2 mGy/MBq | Estimated absorbed dose, Osteogenic cells ([1]; Female (n = 5)): 1.52 ×10^−2 mGy/MBq | Estimated absorbed dose, Ovaries ([1]; Female (n = 5)): 1.66 ×10^−2 mGy/MBq | Estimated absorbed dose, Pancreas ([1]; Female (n = 5)): 1.26 ×10^−2 mGy/MBq | Estimated absorbed dose, Red marrow ([1]; Female (n = 5)): 0.98 ×10^−2 mGy/MBq | Estimated absorbed dose, Skin ([1]; Female (n = 5)): 0.74 ×10^−2 mGy/MBq | Estimated absorbed dose, Small intestine ([1]; Female (n = 5)): 1.30 ×10^−2 mGy/MBq | Estimated absorbed dose, Spleen ([1]; Female (n = 5)): 1.11 ×10^−2 mGy/MBq | Estimated absorbed dose, Stomach wall ([1]; Female (n = 5)): 1.15 ×10^−2 mGy/MBq | Estimated absorbed dose, Thymus ([1]; Female (n = 5)): 1.07 ×10^−2 mGy/MBq | Estimated absorbed dose, Thyroid ([1]; Female (n = 5)): 0.89 ×10^−2 mGy/MBq | Estimated absorbed dose, Total body ([1]; Female (n = 5)): 1.07 ×10^−2 mGy/MBq | Estimated absorbed dose, Upper large intestine wall ([1]; Female (n = 5)): 1.24 ×10^−2 mGy/MBq | Estimated absorbed dose, Urinary bladder wall ([1]; Female (n = 5)): 1.48 ×10^−2 mGy/MBq | Estimated absorbed dose, Uterus ([1]; Female (n = 5)): 1.29 ×10^−2 mGy/MBq | Effective dose ([1]; Male (n = 8)): 0.02 mSv/MBq | Estimated absorbed dose, Adrenals ([1]; Male (n = 8)): 2.22 ×10^−2 mGy/MBq | Estimated absorbed dose, Brain ([1]; Male (n = 8)): 0.59 ×10^−2 mGy/MBq | Estimated absorbed dose, Breasts ([1]; Male (n = 8)): 0.72 ×10^−2 mGy/MBq | Estimated absorbed dose, Gallbladder wall ([1]; Male (n = 8)): 2.01 ×10^−2 mGy/MBq | Estimated absorbed dose, Heart wall ([1]; Male (n = 8)): 2.03 ×10^−2 mGy/MBq | Estimated absorbed dose, Kidneys ([1]; Male (n = 8)): 1.57 ×10^−2 mGy/MBq | Estimated absorbed dose, Liver ([1]; Male (n = 8)): 1.30 ×10^−2 mGy/MBq | Estimated absorbed dose, Lower large intestine wall ([1]; Male (n = 8)): 7.82 ×10^−2 mGy/MBq | Estimated absorbed dose, Lung ([1]; Male (n = 8)): 3.10 ×10^−2 mGy/MBq | Estimated absorbed dose, Muscle ([1]; Male (n = 8)): 0.80 ×10^−2 mGy/MBq | Estimated absorbed dose, Osteogenic cells ([1]; Male (n = 8)): 1.20 ×10^−2 mGy/MBq | Estimated absorbed dose, Pancreas ([1]; Male (n = 8)): 1.03 ×10^−2 mGy/MBq | Estimated absorbed dose, Red marrow ([1]; Male (n = 8)): 0.82 ×10^−2 mGy/MBq | Estimated absorbed dose, Skin ([1]; Male (n = 8)): 0.61 ×10^−2 mGy/MBq | Estimated absorbed dose, Small intestine ([1]; Male (n = 8)): 1.11 ×10^−2 mGy/MBq | Estimated absorbed dose, Spleen ([1]; Male (n = 8)): 0.91 ×10^−2 mGy/MBq | Estimated absorbed dose, Stomach wall ([1]; Male (n = 8)): 0.94 ×10^−2 mGy/MBq | Estimated absorbed dose, Testes ([1]; Male (n = 8)): 0.77 ×10^−2 mGy/MBq | Estimated absorbed dose, Thymus ([1]; Male (n = 8)): 0.90 ×10^−2 mGy/MBq | Estimated absorbed dose, Thyroid ([1]; Male (n = 8)): 0.79 ×10^−2 mGy/MBq | Estimated absorbed dose, Total body ([1]; Male (n = 8)): 0.89 ×10^−2 mGy/MBq | Estimated absorbed dose, Upper large intestine wall ([1]; Male (n = 8)): 1.00 ×10^−2 mGy/MBq | Estimated absorbed dose, Urinary bladder wall ([1]; Male (n = 8)): 1.16 ×10^−2 mGy/MBq | whole-body effective dose ([1]; female animals): 24.5 μSv/MBq | whole-body effective dose ([1]; male animals): 20.5 μSv/MBq | estimated dosimetry (effective dose) ([1]; mouse, in vivo): 0.020 mSv/MBq | critical organ (dosimetry) ([1]; naïve mice): lower large intestine | Effective dose ([1]; range over male and female): 20.5–24.5 μSv/MBq | Parent fraction ([2]; 2 min): 0.95 | Parent fraction ([2]; 5 min): 0.82 | Parent fraction ([2]; 10 min): 0.81 | Parent fraction ([2]; 20 min): 0.81 | Parent fraction ([2]; 30 min): 0.77 | Parent fraction ([2]; 120 min): 0.69 | radiometabolites in brain, heart, and lung ([2]; rat, 60 and 120 min after administration): less than 12.7% | plasma to whole blood ratio ([2]; used for input function correction): 1.84
